From the supplement of paper PMC10331698
± gives the standard deviation of the averaged measurements.

What was measured:
Assay in all cases: level (log10 ratio to DMSO vehicle control); higher = higher biomarker level / cell amount than vehicle control
Octafluoroadipic acid = compound: O=C(O)C(F)(F)C(F)(F)C(F)(F)C(F)(F)C(=O)O [Octafluoroadipic acid] (in DMSO)
Experimental: (§1)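 BioMAP Diversity Plus panel of 12 human primary cell co-culture systems (3C, 4H, LPS, SAg, BT, BF4T, BE3C, CASM3C, HDF3CGF, KF3CT, MyoF, Mphg). Compounds were added 1 h before stimulation and left for 24 h (MyoF 48 h; BT 72 h for soluble read-outs or 6 d for IgG). Biomarkers were read by ELISA, cytotoxicity by SRB, PBMC viability and proliferation by Alamar Blue. Each well value was divided by the mean of 8 DMSO control wells on the same plate and log10 transformed; duplicate blinded samples were tested at 4 concentrations.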

[1] = compound: NS(=O)(=O)C(F)(F)C(F)(F)C(F)(F)C(F)(F)C(F)(F)C(F)(F)C(F)(F)C(F)(F)F [Perfluorooctanesulfonamide] (in DMSO)
Experimental: as §1

[2] = compound: OCC(F)(F)C(F)(F)C(F)(F)C(F)F [1H,1H,5H-Perfluoropentanol] (in DMSO)
Experimental: as §1

[3] = compound: C[C@@H]1C[C@H]2[C@@H]3CCC4=CC(=O)C=C[C@]4(C)[C@@]3(F)[C@@H](O)C[C@]2(C)[C@@]1(O)C(=O)COP(=O)(O)O [Dexamethasone sodium phosphate] (in DMSO)
Experimental: as §1

[4] = compound: O=S(=O)(O)C(F)(F)C(F)(F)C(F)(F)C(F)(F)C(F)(F)C(F)(F)C(F)(F)F [Perfluoroheptanesulfonic acid] (in DMSO)
Experimental: as §1

[5] = compound: C=C(C)C(=O)OCCC(F)(F)C(F)(F)C(F)(F)C(F)(F)C(F)(F)C(F)(F)C(F)(F)C(F)(F)F [8:2 Fluorotelomer methacrylate] (in DMSO)
Experimental: as §1

Row | Test System | level (log10) (Octafluoroadipic acid; 6700 nM) | level (log10) (Octafluoroadipic acid; 20000 nM) | level (log10) (Octafluoroadipic acid; 60000 nM) | level (log10) ([1]; 6700 nM) | level (log10) ([1]; 20000 nM) | level (log10) ([2]; 6700 nM) | level (log10) ([2]; 20000 nM) | level (log10) ([2]; 60000 nM) | level (log10) ([3]; 1500 nM) | level (log10) ([3]; 4400 nM) | level (log10) ([3]; 13000 nM) | level (log10) ([3]; 40000 nM) | level (log10) ([4]; 1500 nM) | level (log10) ([4]; 4400 nM) | level (log10) ([4]; 13000 nM) | level (log10) ([4]; 40000 nM) | level (log10) ([5]; 6700 nM) | level (log10) ([5]; 20000 nM)
1 | LPS:sPGE2 | -0.002 ± 0.044 | -0.023 ± 0.0028 | -0.014 ± 0.017 | 0.07 ± 0.011 | 0.0945 ± 0.012 | -0.071 ± 0.011 | -0.027 ± 0.018 | -0.0175 ± 0.036 | -0.028 ± 0.028 | -0.0525 ± 0.015 | -0.121 ± 0.044 | -0.155 ± 0.016 | 0.018 ± 0.024 | 0.0045 ± 0.016 | 0.0175 ± 0.0064 | 0.005 ± 0.024 | -0.038 ± 0.013 | -0.058 ± 0.048
2 | LPS:sTNF-alpha | -0.0035 ± 0.0035 | 0.0155 ± 0.005 | 0.0125 ± 0.018 | 0.007 ± 0.0042 | -0.0245 ± 0.00071 | 0.006 ± 0.041 | 0.0065 ± 0.044 | 0.01 ± 0.028 | -0.083 ± 0.047 | -0.0655 ± 0.032 | -0.19 ± 0.038 | -0.262 ± 0.032 | 0.024 ± 0.011 | -0.0245 ± 0.012 | -0.0225 ± 0.013 | -0.0295 ± 0.005 | 0.0165 ± 0.0064 | -0.007 ± 0.017
3 | SAg:CCL2/MCP-1 | -0.014 ± 0.02 | -0.0135 ± 0.0035 | 0.0015 ± 0.018 | -0.0125 ± 0.021 | 0.0075 ± 0.015 | 0.016 ± 0.0085 | 0.0115 ± 0.035 | -0.014 ± 0.035 | -0.024 ± 0.031 | -0.029 ± 0.013 | -0.089 ± 0.0042 | -0.07 | -0.001 ± 0.031 | -0.0345 ± 0.044 | -0.024 ± 0.028 | 0.031 ± 0.0071 | 0.0005 ± 0.025 | 0.003 ± 0.011
4 | SAg:CD38 | -0.0415 ± 0.023 | -0.026 ± 0.017 | -0.0265 ± 0.0021 | -0.006 ± 0.0071 | -0.089 ± 0.016 | 0.0465 ± 0.018 | 0.0415 ± 0.022 | 0.0305 ± 0.049 | -0.014 ± 0.018 | -0.027 ± 0.021 | -0.037 ± 0.0028 | -0.0215 ± 0.023 | -0.003 ± 0.025 | -0.019 ± 0.017 | -0.008 ± 0.027 | -0.011 ± 0.0042 | -0.0195 ± 0.00071 | -0.011 ± 0.013
5 | SAg:CD40 | -0.0135 ± 0.015 | -0.013 ± 0.023 | -0.025 ± 0.016 | -0.028 ± 0.0042 | -0.1085 ± 0.00071 | -0.055 ± 0.033 | -0.018 ± 0.031 | -0.0165 ± 0.073 | -0.044 ± 0.0085 | -0.072 ± 0.05 | -0.0535 ± 0.03 | -0.074 ± 0.081 | -0.0375 ± 0.023 | -0.0165 ± 0.012 | -0.009 ± 0.016 | -0.049 ± 0.014 | -0.0265 ± 0.035 | -0.0335 ± 0.0078
6 | SAg:CD62E/E-Selectin | -0.0095 ± 0.077 | 0.0125 ± 0.053 | 0.0285 ± 0.029 | -0.0165 ± 0.00071 | -0.0845 ± 0.015 | -0.011 ± 0.018 | 0.008 ± 0.0071 | 0.0325 ± 0.035 | -0.0615 ± 0.0021 | -0.124 ± 0.015 | -0.168 ± 0.059 | -0.168 ± 0.03 | 0.0035 ± 0.043 | -0.03 ± 0.018 | 0.0025 ± 0.00071 | 0.0435 ± 0.0035 | -0.005 ± 0.013 | 0.0205 ± 0.023
7 | SAg:CD69 | 0.0345 ± 0.073 | 0.0345 ± 0.056 | 0.0315 ± 0.054 | -0.0205 ± 0.06 | -0.119 ± 0.064 | -0.015 ± 0.018 | 0.0185 ± 0.0092 | 0.0045 ± 0.023 | -0.025 ± 0.02 | -0.054 ± 0.02 | -0.0885 ± 0.03 | -0.0865 ± 0.011 | -0.0145 ± 0.029 | -0.0175 ± 0.012 | -0.004 ± 0.03 | 0.0045 ± 0.013 | -0.013 ± 0.016 | -0.022 ± 0.013
8 | SAg:CXCL8/IL-8 | 0.014 ± 0.018 | 0.01 ± 0.013 | 0.018 ± 0.031 | -0.0015 ± 0.005 | -0.0505 ± 0.03 | 0.006 ± 0.033 | -0.0065 ± 0.00071 | 0.0275 ± 0.052 | -0.0245 ± 0.039 | -0.0475 ± 0.039 | -0.097 ± 0.075 | -0.137 ± 0.087 | 0.0205 ± 0.12 | -0.04 ± 0.075 | -0.001 ± 0.045 | 0.0455 ± 0.047 | -0.0215 ± 0.047 | 0.007 ± 0.021
